Assay results published in patent US20240011027A1, “METHODS AND COMPOSITIONS FOR RESTORING STMN2 LEVELS” (President and Fellows of Harvard College, priority 2020, published 2024).
Where a SMILES comes first, the peptide text is derived from it. The star is where a group is joined. Cbz = O=C(OCc1ccccc1)*

Assays:
Format in all cases: cell-based, human
[1] = system: STMN2 RNA; test: qRT-PCR of full-length STMN2 after proteasome inhibition with MG-132 in patient's motor neurons; details: MG-132 (1 uM); patient's neurons
Excerpt: It was established that ASO (SJ+94) and ASO (SJ-1) suppressed cryptic splicing of STMN2 and restored full length STMN2 RNA in the patient's motor neurons when there is a reduction in nuclear TDP-43. […] Post-mortem tissue studies have shown that TDP-43 mis-localization and its aggregation in cytoplasm is a hallmark of sporadic ALS. Several groups have reported cytoplasmic aggregation of TDP-43 akin to that observed in post-mortem tissue of sporadic ALS patients occurs in response to pharmacological inhibition of the proteasome (1, 4).

[2] = system: proteasome; test: proteasome activity assay in hMNs treated with MG-132; details: overnight 1 μM treatment
[3] = system: TDP-43; test: TDP-43 localization by immunostaining, Pearson's correlation with DAPI, after MG-132 pulse-chase
Protocol: For immunofluorescence, cells were fixed with ice-cold 4% PFA for 15 minutes at 4° C., permeabilized with 0.2% Triton-X in lx PBS for 45 minutes and blocked with 10% donkey serum in lx PBS-T (0.1% Tween-20) for 1 hour. Cells were then incubated overnight at 4° C. with primary antibody (diluted in blocking solution). At least 4 washes (5 min incubation each) with 1×PBS-T were carried out, before incubating the cells with secondary antibodies for 1 hour at room temperature (diluted in blocking solution). Nuclei were stained with DAPI. The following antibodies were used in this study: Hb9 (1:100, DSHB, MNR2 81.5C10-c), TUJ1 (1:1000, Sigma, T2200), MAP2 (1:10000, Abcam ab5392), Ki67 (1:400, Abcam, ab833), GFP (1:500, Life Technologies™, A10262), Islet1 (1:500, Abcam ab20670), TDP-43 (1:500, ProteinTech Group), STMN2 (1:4000, Novus), AlexaFluor™ 647-Phalloidin (1:200,). Secondary antibodies used (488, 555, 594, and 647) were AlexaFluor™ (1:1000, Life Technologies™) and DyLight (1:500, Jackson ImmunoResearch Laboratories). Micrographs were analyzed using FIJI software to determine the correlation coefficient.

[4] = system: TDP-43; test: immunoblot of TDP-43 in detergent-soluble (RIPA) and detergent-insoluble (UREA) fractions after MG-132
Protocol: (§1) To determine what happened to TDP-43 after proteasome inhibition, TDP-43 levels were examined by immunoblot analysis in both the detergent-soluble and detergent-insoluble fractions. […] Finally, STMN2 levels in neurons treated with either a short-term high dose or a long-term low dose of MG-132 were probed.
For analysis of TDP-43 and STMN2 protein expression levels, d10 MNs were lysed in RIPA buffer (150 mM Sodium Chloride; 1% Triton X-100; 0.5% sodium deoxycholate; 0.1% SDS; 50 mM Tris pH 8.0) containing protease and phosphatase inhibitors (Roche) for 20 min on ice, and centrifuged at high speed. 200 μL of RIPA buffer per well of 24-well culture were routinely used, which yielded ˜20 μg of total protein as determined by BCA (Thermo Scientific). After two washes with RIPA buffer, insoluble pellets were resuspended in 200 μl of UREA buffer (Bio-Rad). For immunoblot assays 2-3 μg of total protein were separated by SDS-PAGE (BioRad), transferred to PDVF membranes (BioRad) and probed with antibodies against TDP-43 (1:1000, ProteinTech Group), GAPDH (1:1000, Millipore) and STMN2 (1:3000, Novus). Insoluble pellets were loaded based on protein concentration of correspondent RIPA-soluble counterparts. […] GAPDH levels were used to normalized each sample, and LiCor software was used to quantitate protein band signal.

[5] = system: STMN2; test: qRT-PCR of STMN2 expression in hMNs treated with proteasome inhibitors; details: short-term high dose or long-term low dose
Protocol: as §1
Total RNA was isolated from d10 MNs for RNA-Seq experiments and validation assays using Trizol LS (Invitrogen) according to manufacturer's instructions. 500 μL were added per well of the 24-well cultures. A total of 300-1000 ng of total RNA was used to synthesize cDNA by reverse transcription according to the iSCRIPT kit (Bio-rad). Quantitative RT-PCR (qRT-PCR) was then performed using SYBR green (Bio-Rad) and the iCycler system (Bio-rad). Quantitative levels for all genes assayed were normalized using GAPDH expression. […] All primer sequences are available upon request. For next-generation RNA sequencing (RNA-Seq), at least two technical replicas per siRNA sample or AAVS1-TDP43 genotype were included in the analyses. After RNA extraction, samples with RNA integrity numbers (RIN) above 7.5, determined by a bioAnalyzer, were used for library preparation. […] All FASTQ files were analyzed using the bcbioRNASeq workflow and toolchain (90). […]

[6] = system: STMN2; test: STMN2 mRNA expression in HUES3, IG2 (Stmn2 KO) and CN7 (cryptic exon deletion) lines stressed with MG132; details: 1 uM for 24 hours
Protocol: Three cell lines, HUES3, IG2 (Stmn2 KO), and CN7 (cryptic exon deletion) were treated with normal media or media+1 uM MG132 for 24 hours to stress the cells. In HUES3 cells, the stressed condition had 52% STMN2 mRNA expression compared to the unstressed condition. In IG2 (Stmn2 KO) condition, unstressed cells had 13% expression, and when stressed, expression increased to 42%. […] It was shown that if several exons are knocked out the expression goes down, but if the TDP-43 binding site is removed, expression goes way up.

[7] = system: STMN2 cryptic exon; test: RT-PCR detection of transcripts containing the STMN2 cryptic exon in hMNs treated with proteasome inhibitors
Protocol: It was then asked if cryptic exon inclusion could be contributing to decreased STMN2 levels in hMNs after proteasome inhibition. To accomplish this goal, an RT-PCR assay was developed to detect transcripts containing the cryptic exon (FIG. 5F). […] Total RNA was isolated from neurons using RNeasy Mini Kit (Qiagen) according to manufacturer's instructions. A total of 300-1000 ng of total RNA was used to synthesize cDNA by reverse transcription according to the iSCRIPT kit (Bio-rad). RT-PCR was then performed using one cryptic exon-specific primer and then analyzed using the Agilent 2200 Tapestation.

## CC(C)C[C@@H](C=O)NC(=O)[C@H](CC(C)C)NC(=O)[C@H](CC(C)C)NC(=O)OCc1ccccc1 [MG-132] (Cbz-Leu-Leu-Leu-aldehyde)
[1]
  STMN2 expression after proteasome inhibition: decreased STMN2 expression
[2]
  proteasome activity: less than 10 % of normal activity
[3]; 24 hour 1 μM pulse, hMNs
  TDP-43 staining in the nucleus: greatly diminished
[3]; after 24 hour 1 μM pulse and washout
  TDP-43 staining following washout: indistinguishable to unchallenged neurons after 4 days
[4]; control neurons treated with a low dose
  TDP-43 levels in soluble lysates: significantly decreased TDP-43 levels
[4]; proteasome inhibition
  TDP-43 in UREA (insoluble) fraction: triggers TDP-43 to become insoluble
[5]
  STMN2 mRNA levels: significant decreases
[6]; CN7 (Cryptic Exon Deletion) cells, unstressed 729%
  STMN2 mRNA expression: 473%
[6]; HUES3 cells
  STMN2 mRNA expression compared to the unstressed condition: 52%
[6]; IG2 (Stmn2 KO) cells, unstressed 13%
  STMN2 mRNA expression: 42%
[7]
  transcripts containing the STMN2 cryptic exon (PCR assay): presence of transcripts containing the STMN2 cryptic exon
